According to patent US20130217702A1 (Richter Gedeon Nyrt., priority 2010, published 2013):

Legend:
[1] = biological target: T1, recombinant human B1 receptors (Homo sapiens, UniProt P46663); assay: Functional assay: antagonist potency by cytosolic calcium measurement (plate reader fluorimeter) in CHO-B1 cells, agonist LysDABK; assay type: cell-based; details: CHO-B1 cells, inhibition of LysDABK (EC80)-evoked [Ca2+]i elevation; read-out: B1 func.
T1 construct: host or cells: CHO (CHO-B1)
T1 sequence (P46663 1-353): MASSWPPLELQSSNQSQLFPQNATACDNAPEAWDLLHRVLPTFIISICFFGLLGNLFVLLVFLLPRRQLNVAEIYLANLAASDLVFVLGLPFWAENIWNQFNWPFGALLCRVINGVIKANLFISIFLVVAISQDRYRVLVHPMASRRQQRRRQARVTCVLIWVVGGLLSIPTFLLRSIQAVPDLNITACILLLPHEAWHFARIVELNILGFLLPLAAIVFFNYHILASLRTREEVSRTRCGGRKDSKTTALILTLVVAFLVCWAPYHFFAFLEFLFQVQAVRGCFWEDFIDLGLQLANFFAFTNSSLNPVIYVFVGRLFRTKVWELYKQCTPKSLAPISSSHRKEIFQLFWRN
Outline: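 IC50 is the concentration giving half-maximal inhibition of the LysDABK (EC80) calcium response, fitted from at least three experiments. CHO cells stably expressing human B1 were dye-loaded, exposed to compound for 20-25 min, then read by fluo-4 fluorescence (ΔF/F) at 37 °C.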

[2] = biological target: T2, human recombinant bradykinin B1 receptor (Homo sapiens, UniProt P46663); assay: Human recombinant bradykinin B1 receptor competitive radioligand binding; details: hB1 expressed in CHO cells, [3H]-[Des-Arg10] Kallidin radioligand; read-out: B1 binding
T2 construct: host or cells: CHO cells, clone hB1-A5
T2 sequence (P46663 1-353): T1 sequence (P46663 1-353)
Outline: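 Competition radioligand binding on CHO-expressed hB1 membranes, using [3,4-prolyl-3,4-^3H(N)]-[Des-Arg^10] Kallidin as tracer, 15 min at 25° C. Excess Lys-des-Arg^9-Bradykinin (10 μM) set nonspecific binding. Sigmoidal fits of at least seven concentrations gave IC50, converted to Ki via Cheng-Prusoff; KD from Scatchard.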

| SMILES | IC50 [1] | Ki [2] |
| --- | --- | --- |
| COc1cc(C(=O)NC2(C(=O)NCc3ccc(-n4c(-c5nnn(C)n5)c(Cl)c5cc(Cl)ccc54)cc3)CC2)on1 [Example 18, 3-Methoxy-isoxazole-5-carboxylic acid (1-{4-[3,5-dichloro-2-(2-methyl-2H-tetrazol-5-yl)-indol-1-yl]-benzylcarbamoyl}-cyclopropyl)-amide] | < 20 nM | < 20 nM |
| Cc1nc(-c2c(Cl)c3cc(F)ccc3n2-c2ccc(CNC(=O)C3(NC(=O)c4cccc(F)c4)CC3)cc2)no1 [Example 86, N-(1-{4-[3-Chloro-5-fluoro-2-(5-methyl-[1,2,4]oxadiazol-3-yl)-indol-1-yl]-benzylcarbamoyl}-cyclopropyl)-3-fluoro-benzamide] | < 20 nM | < 20 nM |
| Cn1nnc(-c2c(Cl)c3ccccc3n2-c2ccc(CNC(=O)C3(NC(=O)C(F)(F)F)CC3)c(F)c2)n1 [Example 4, 1-(2,2,2-Trifluoro-acetylamino)-cyclopropanecarboxylic acid 4-[3-chloro-2-(2-methyl-2H-tetrazol-5-yl)-indol-1-yl]-2-fluorobenzylamide] | < 20 nM | < 20 nM |
| Cc1nc(-c2c(Cl)c3ccccc3n2-c2ccc(CNC(=O)C3(NC(=O)c4cccnc4C)CC3)cc2)no1 [Example 155, N-(1-{4-[3-Chloro-2-(5-methyl-[1,2,4]oxadiazol-3-yl)-indol-1-yl]-benzylcarbamoyl}-cyclopropyl)-2-methyl-nicotinamide] | 20 to 100 nM | 20 to 100 nM |
| Cc1nc(-c2c(Cl)c3cc(F)ccc3n2-c2ccc(CNC(=O)C3(NC(=O)C(F)(F)F)CC3)cc2)no1 [Example 189, 1-(2,2,2-Trifluoro-acetylamino)-cyclopropanecarboxylic acid 4-[3-chloro-5-fluoro-2-(5-methyl-[1,2,4]oxadiazol-3-yl)-indol-1-yl]-benzylamide] | < 20 nM | < 20 nM |
| COc1cc(C(=O)NC2(C(=O)NCc3ccc(-n4c(-c5nnn(C)n5)c(Cl)c5cc(F)ccc54)cc3F)CC2)on1 [Example 20, 3-Methoxy-isoxazole-5-carboxylic acid (1-{4-[3-chloro-5-fluoro-2-(2-methyl-2H-tetrazol-5-yl)-indol-1-yl]-2-fluoro-benzylcarbamoyl}-cyclopropyl)-amide] | < 20 nM | < 20 nM |
| Cc1nc(-c2c(Cl)c3ccccc3n2-c2ccc(CNC(=O)C3(NC(=O)c4cncnc4)CC3)cc2)no1 [Example 166, Pyrimidine-5-carboxylic acid (1-{4-[3-chloro-2-(5-methyl-[1,2,4]oxadiazol-3-yl)indol-1-yl]-benzylcarbamoyl}-cyclopropyl)-amide] | < 20 nM | < 20 nM |
| Cc1cc(C(=O)NC2(C(=O)NCc3ccc(-n4c(-c5noc(C)n5)c(Cl)c5ccccc54)cc3)CC2)n[nH]1 [Example 152, 5-Methyl-1H-pyrazole-3-carboxylic acid (1-{4-[3-chloro-2-(5-methyl-[1,2,4]oxadiazol-3-yl)-indol-1-yl]-benzylcarbamoyl}-cyclopropyl)-amide] | 20 to 100 nM | < 20 nM |
| Cc1noc(-c2c(Cl)c3ccccc3n2-c2ccc(CNC(=O)C3(NC(=O)c4cncc(C(F)(F)F)c4)CC3)cc2)n1 [Example 115, N-(1-{4-[3-Chloro-2-(3-methyl-[1,2,4]oxadiazol-5-yl)-indol-1-yl]-benzylcarbamoyl}-cyclopropyl)-5-trifluoromethyl-nicotinamide] | < 20 nM | < 20 nM |
| COc1cc(C(=O)NC2(C(=O)NCc3ccc(-n4c(-c5nnn(C)n5)cc5ccccc54)cc3)CC2)on1 [Example 3, 3-Methoxy-isoxazole-5-carboxylic acid (1-{4-[2-(2-methyl-2H-tetrazol-5-yl)-indol-1-yl]-benzylcarbamoyl}-cyclopropyl)-amide] | < 20 nM | < 20 nM |
| Cc1cc(C(=O)NC2(C(=O)NCc3ccc(-n4c(-c5noc(C)n5)c(Cl)c5cc(Cl)ccc54)cc3)CC2)no1 [Example 73, 5-Methyl-isoxazole-3-carboxylic acid (1-{4-[3,5-dichloro-2-(5-methyl-[1,2,4]oxadiazol-3-yl)-indol-1-yl]-benzylcarbamoyl}-cyclopropyl)-amide] | < 20 nM | < 20 nM |
| COc1ccc2c(c1)c(Cl)c(-c1noc(C)n1)n2-c1ccc(CNC(=O)C2(NC(=O)c3cnc(C)cn3)CC2)cc1 [Example 129, 5-Methyl-pyrazine-2-carboxylic acid (1-{4-[3-chloro-5-methoxy-2-(5-methyl-[1,2,4]oxadiazol-3-yl)-indol-1-yl]-benzylcarbamoyl}-cyclopropyl)-amide] | < 20 nM | < 20 nM |
| Cc1nc(-c2c(Cl)c3ccccc3n2-c2ccc(CNC(=O)C3(NC(=O)c4conc4C)CC3)cc2)no1 [Example 181, 3-Methyl-isoxazole-4-carboxylic acid (1-{4-[3-chloro-2-(5-methyl-[1,2,4]oxadiazol-3-yl)-indol-1-yl]-benzylcarbamoyl}-cyclopropyl)-amide] | < 20 nM | < 20 nM |
| COc1ccc2c(c1)c(Cl)c(-c1noc(C)n1)n2-c1ccc(CNC(=O)C2(NC(=O)c3cncc(C(F)(F)F)c3)CC2)cc1 [Example 130, N-(1-{4-[3-Chloro-5-methoxy-2-(5-methyl-[1,2,4]oxadiazol-3-yl)-indol-1-yl]-benzylcarbamoyl}-cyclopropyl)-5-trifluoromethyl-nicotinamide] | < 20 nM | < 20 nM |
| Cc1nc(-c2c(Cl)c3cc(F)ccc3n2-c2ccc(CNC(=O)C3(NC(=O)c4cncc(C(F)(F)F)c4)CC3)cc2)no1 [Example 91, N-(1-{4-[3-Chloro-5-fluoro-2-(5-methyl-[1,2,4]oxadiazol-3-yl)-indol-1-yl]-benzylcarbamoyl}-cyclopropyl)-5-trifluoromethyl-nicotinamide] | < 20 nM | < 20 nM |
| Cc1nc(-c2cc3cc(F)ccc3n2-c2ccc(CNC(=O)C3(NC(=O)c4cccnc4F)CC3)cc2)no1 [Example 120, 2-Fluoro-N-(1-{4-[5-fluoro-2-(5-methyl-[1,2,4]oxadiazol-3-yl)-indol-1-yl]-benzylcarbamoyl}-cyclopropyl)-nicotinamide] | < 20 nM | < 20 nM |
| Cc1nc(-c2c(Cl)c3cc(Cl)ccc3n2-c2ccc(CNC(=O)C3(NC(=O)c4cccnc4Cl)CC3)cc2)no1 [Example 70, 2-Chloro-N-(1-{4-[3,5-dichloro-2-(5-methyl-[1,2,4]oxadiazol-3-yl)-indol-1-yl]-benzylcarbamoyl}-cyclopropyl)-nicotinamide] | < 20 nM | < 20 nM |
| CC(=O)NC(CO)C(=O)NC1(C(=O)NCc2ccc(-n3c(-c4noc(C)n4)c(Cl)c4ccccc43)cc2)CC1 (centres unmarked) [Example 151, 1-(2-Acetylamino-3-hydroxy-propionylamino)-cyclopropanecarboxylic acid 4-[3-chloro-2-(5-methyl-[1,2,4]oxadiazol-3-yl)-indol-1-yl]-benzylamide] | 100 to 500 nM | 100 to 500 nM |
| Cc1nc(-c2c(Cl)c3ccccc3n2-c2ccc(CNC(=O)C3(NC(=O)C4CCC4)CC3)cc2)no1 [Example 143, Cyclobutanecarboxylic acid (1-{4-[3-chloro-2-(5-methyl-[1,2,4]oxadiazol-3-yl)-indol-1-yl]-benzylcarbamoyl}-cyclopropyl)-amide] | < 20 nM | < 20 nM |
